Test results taken from ChEMBL document CHEMBL2074223 (Mol Pharmacol, 2000).

T1: Bile salt export pump (Mus musculus, UniProt Q9QY30)
T1 sequence (Q9QY30 whole entry): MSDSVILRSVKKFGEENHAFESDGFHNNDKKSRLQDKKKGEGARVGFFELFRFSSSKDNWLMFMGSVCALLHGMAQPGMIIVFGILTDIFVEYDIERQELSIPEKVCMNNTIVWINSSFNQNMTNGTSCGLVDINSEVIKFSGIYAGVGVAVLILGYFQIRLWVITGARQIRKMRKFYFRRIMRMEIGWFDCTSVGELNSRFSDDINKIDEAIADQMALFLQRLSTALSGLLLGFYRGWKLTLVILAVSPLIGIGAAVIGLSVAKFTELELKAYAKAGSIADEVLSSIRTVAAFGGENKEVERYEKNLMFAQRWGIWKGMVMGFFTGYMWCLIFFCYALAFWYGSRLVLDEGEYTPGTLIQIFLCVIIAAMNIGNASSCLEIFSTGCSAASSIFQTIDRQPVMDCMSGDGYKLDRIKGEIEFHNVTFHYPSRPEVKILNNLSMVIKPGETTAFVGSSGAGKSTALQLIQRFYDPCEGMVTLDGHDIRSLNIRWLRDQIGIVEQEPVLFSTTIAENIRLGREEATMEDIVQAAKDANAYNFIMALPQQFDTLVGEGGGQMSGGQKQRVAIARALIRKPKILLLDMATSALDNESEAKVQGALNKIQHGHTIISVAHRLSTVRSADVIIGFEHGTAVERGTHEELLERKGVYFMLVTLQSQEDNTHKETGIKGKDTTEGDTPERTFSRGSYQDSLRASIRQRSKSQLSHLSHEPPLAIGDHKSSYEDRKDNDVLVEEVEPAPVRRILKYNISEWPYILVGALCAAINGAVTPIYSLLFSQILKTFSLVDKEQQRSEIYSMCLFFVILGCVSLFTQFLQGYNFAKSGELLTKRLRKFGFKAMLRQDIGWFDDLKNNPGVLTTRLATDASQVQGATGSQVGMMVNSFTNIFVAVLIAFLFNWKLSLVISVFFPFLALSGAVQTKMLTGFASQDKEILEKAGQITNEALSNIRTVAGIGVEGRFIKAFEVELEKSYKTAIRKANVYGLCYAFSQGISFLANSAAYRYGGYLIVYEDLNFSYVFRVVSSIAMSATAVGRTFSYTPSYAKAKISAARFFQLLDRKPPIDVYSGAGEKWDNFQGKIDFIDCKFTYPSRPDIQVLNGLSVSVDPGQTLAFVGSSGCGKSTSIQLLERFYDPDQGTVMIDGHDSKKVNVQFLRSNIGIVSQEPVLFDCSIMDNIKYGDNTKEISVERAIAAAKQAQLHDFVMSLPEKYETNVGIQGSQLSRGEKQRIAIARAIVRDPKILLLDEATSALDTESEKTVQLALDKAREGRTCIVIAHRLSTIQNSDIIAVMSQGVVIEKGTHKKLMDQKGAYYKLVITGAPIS


Key:
Format in all cases: functional, cell-based
[1] = biological target: T2, ATP-dependent translocase ABCB1 (Homo sapiens, UniProt P08183); experiment: TP_TRANSPORTER: increase in Calcein-AM intracellular accumulation (Calcein-AM: 1 uM, Ditekiren: 20 uM) in MDR1-expressing LLC-PK1 cells; conditions: pig, llc-pk1, 20 µM
[2] = biological target: T1, Bile salt export pump; experiment: TP_TRANSPORTER: increase in Calcein-AM intracellular accumulation (Calcein-AM: 1 uM, Ditekiren: 20 uM) in Bsep-expressing LLC-PK1 cells; conditions: pig, llc-pk1, 20 µM
[3] = biological target: T1, Bile salt export pump; experiment: (§1) TP_TRANSPORTER: intracellular accumulation in Bsep-expressing LLC-PK1 cells; conditions: pig
[4] = biological target: T2, ATP-dependent translocase ABCB1; experiment: (§2) TP_TRANSPORTER: intracellular accumulation in MDR1-expressing LLC-PK1 cells; conditions: pig
[5] = biological target: T1, Bile salt export pump; experiment: TP_TRANSPORTER: increase in Calcein-AM intracellular accumulation (Calcein-AM: 1 uM, Reserpine: 20 uM) in Bsep-expressing LLC-PK1 cells; conditions: pig, llc-pk1, 20 µM
[6] = tested on: CC[C@]1(O)C[C@@H]2CN(CCc3c([nH]c4ccccc34)[C@@](C(=O)OC)(c3cc4c(cc3OC)N(C)[C@H]3[C@@](O)(C(=O)OC)[C@H](OC(C)=O)[C@]5(CC)C=CCN6CC[C@]43[C@@H]65)C2)C1; experiment: as §2
[7] = substrate: CC[C@]1(O)C[C@@H]2CN(CCc3c([nH]c4ccccc34)[C@@](C(=O)OC)(c3cc4c(cc3OC)N(C)[C@H]3[C@@](O)(C(=O)OC)[C@H](OC(C)=O)[C@]5(CC)C=CCN6CC[C@]43[C@@H]65)C2)C1; experiment: as §1

T2 sequence (P08183 whole entry): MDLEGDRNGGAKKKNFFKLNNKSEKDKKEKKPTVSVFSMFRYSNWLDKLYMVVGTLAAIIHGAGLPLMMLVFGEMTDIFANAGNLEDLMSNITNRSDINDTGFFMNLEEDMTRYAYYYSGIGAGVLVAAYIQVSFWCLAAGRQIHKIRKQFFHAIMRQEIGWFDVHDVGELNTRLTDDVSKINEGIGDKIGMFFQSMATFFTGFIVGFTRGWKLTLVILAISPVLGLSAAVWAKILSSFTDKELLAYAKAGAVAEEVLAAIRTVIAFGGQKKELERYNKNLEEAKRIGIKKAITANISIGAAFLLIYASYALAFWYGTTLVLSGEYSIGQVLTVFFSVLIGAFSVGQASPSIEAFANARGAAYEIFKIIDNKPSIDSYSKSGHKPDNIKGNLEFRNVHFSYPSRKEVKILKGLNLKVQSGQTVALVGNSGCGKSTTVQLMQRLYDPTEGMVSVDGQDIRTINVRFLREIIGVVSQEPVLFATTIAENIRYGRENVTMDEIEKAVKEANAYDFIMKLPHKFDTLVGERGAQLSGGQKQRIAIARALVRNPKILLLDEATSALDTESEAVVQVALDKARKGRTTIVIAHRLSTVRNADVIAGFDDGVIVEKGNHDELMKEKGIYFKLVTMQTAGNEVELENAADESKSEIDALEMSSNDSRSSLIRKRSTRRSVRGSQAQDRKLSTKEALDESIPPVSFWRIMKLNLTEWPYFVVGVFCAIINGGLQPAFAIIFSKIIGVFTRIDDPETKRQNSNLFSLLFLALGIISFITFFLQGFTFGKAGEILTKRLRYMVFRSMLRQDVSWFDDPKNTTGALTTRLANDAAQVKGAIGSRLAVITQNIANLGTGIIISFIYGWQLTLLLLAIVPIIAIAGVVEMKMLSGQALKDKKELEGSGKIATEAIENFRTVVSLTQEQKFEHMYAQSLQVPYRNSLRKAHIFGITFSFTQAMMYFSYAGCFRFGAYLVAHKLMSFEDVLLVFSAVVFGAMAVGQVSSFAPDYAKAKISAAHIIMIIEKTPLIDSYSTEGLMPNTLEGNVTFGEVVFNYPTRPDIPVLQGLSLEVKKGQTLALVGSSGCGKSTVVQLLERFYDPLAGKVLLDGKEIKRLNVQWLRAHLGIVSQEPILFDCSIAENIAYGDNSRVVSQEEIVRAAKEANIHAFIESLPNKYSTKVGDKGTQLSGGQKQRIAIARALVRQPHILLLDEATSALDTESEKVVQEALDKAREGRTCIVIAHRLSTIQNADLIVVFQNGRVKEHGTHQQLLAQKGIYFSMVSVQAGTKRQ

Activity [4] | Molecule | Activity [3] | other results
substrate [+] | CC(=O)OCOC(=O)CN(CC(=O)OCOC(C)=O)Cc1c(OC(C)=O)ccc2c1Oc1c(ccc(OC(C)=O)c1CN(CC(=O)OCOC(C)=O)CC(=O)OCOC(C)=O)C21OC(=O)c2ccccc21 | substrate [+] | 
substrate [+] | COc1cccc2c1C(=O)c1c(O)c3c(c(O)c1C2=O)C[C@@](O)(C(C)=O)C[C@@H]3O[C@H]1C[C@H](N)[C@H](O)[C@H](C)O1 [DAUNORUBICIN] | is not a substrate [-] | 
substrate [+] | CC(=O)O[C@H]1C(=O)[C@@]2(C)[C@H]([C@H](OC(=O)c3ccccc3)[C@]3(O)C[C@H](OC(=O)[C@H](O)[C@@H](NC(=O)c4ccccc4)c4ccccc4)C(C)=C1C3(C)C)[C@]1(OC(C)=O)CO[C@@H]1C[C@@H]2O [PACLITAXEL] | is not a substrate [-] | 
substrate [+] | COC(=O)c1ccccc1-c1c2ccc(=N)cc-2oc2cc(N)ccc12.Cl [RHODAMINE123] | is not a substrate [-] | 
substrate [+] | CC[C@]1(O)C[C@H]2CN(CCc3c([nH]c4ccccc34)[C@@](C(=O)OC)(c3cc4c(cc3OC)N(C=O)[C@H]3[C@@](O)(C(=O)OC)[C@H](OC(C)=O)[C@]5(CC)C=CCN6CC[C@]43[C@@H]65)C2)C1 [VINCRISTINE] | is not a substrate [-] | 

The next lines start with the molecule.

Molecule | Activity [4] | Activity [3] | other results
CC[C@H](C)[C@H](NC(=O)[C@@H](C[C@H](O)[C@H](CC(C)C)NC(=O)[C@H](Cc1c[nH]cn1)N(C)C(=O)[C@H](Cc1ccccc1)NC(=O)[C@@H]1CCCN1C(=O)OC(C)(C)C)C(C)C)C(=O)NCc1ccccn1 |  |  | Activity [1]: is not an inhibitor [-]; Activity [2]: inhibitor [+]
C[C@H]1O[C@@H](O[C@H]2[C@@H](O)C[C@H](O[C@H]3[C@@H](O)C[C@H](O[C@H]4CC[C@@]5(C)[C@H](CC[C@@H]6[C@@H]5C[C@@H](O)[C@]5(C)[C@@H](C7=CC(=O)OC7)CC[C@]65O)C4)O[C@@H]3C)O[C@@H]2C)C[C@H](O)[C@@H]1O [DIGOXIN] |  | is not a substrate [-] | 
COC(=O)[C@H]1[C@H]2C[C@@H]3c4[nH]c5cc(OC)ccc5c4CCN3C[C@H]2C[C@@H](OC(=O)c2cc(OC)c(OC)c(OC)c2)[C@@H]1OC [RESERPINE] |  |  | Activity [5]: inhibitor [+]
ATP-dependent translocase ABCB1 (Homo sapiens) |  |  | Km [6]: 99.4 µM
Bile salt export pump (Mus musculus) (protein) MSDSVILRSVKKFGEENHAFESDGFHNNDKKSRLQDKKKGEGARVGFFELFRFSSSKDNWLMFMGSVCALLHGMAQPGMIIVFGILTDIFVEYDIERQELSIPEKVCMNNTIVWINSSFNQNMTNGTSCGLVDINSEVIKFSGIYAGVGVAVLILGYFQIRLWVITGARQIRKMRKFYFRRIMRMEIGWFDCTSVGELNSRFSDDINKIDEAIADQMALFLQRLSTALSGLLLGFYRGWKLTLVILAVSPLIGIGAAVIGLSVAKFTELELKAYAKAGSIADEVLSSIRTVAAFGGENKEVERYEKNLMFAQRWGIWKGMVMGFFTGYMWCLIFFCYALAFWYGSRLVLDEGEYTPGTLIQIFLCVIIAAMNIGNASSCLEIFSTGCSAASSIFQTIDRQPVMDCMSGDGYKLDRIKGEIEFHNVTFHYPSRPEVKILNNLSMVIKPGETTAFVGSSGAGKSTALQLIQRFYDPCEGMVTLDGHDIRSLNIRWLRDQIGIVEQEPVLFSTTIAENIRLGREEATMEDIVQAAKDANAYNFIMALPQQFDTLVGEGGGQMSGGQKQRVAIARALIRKPKILLLDMATSALDNESEAKVQGALNKIQHGHTIISVAHRLSTVRSADVIIGFEHGTAVERGTHEELLERKGVYFMLVTLQSQEDNTHKETGIKGKDTTEGDTPERTFSRGSYQDSLRASIRQRSKSQLSHLSHEPPLAIGDHKSSYEDRKDNDVLVEEVEPAPVRRILKYNISEWPYILVGALCAAINGAVTPIYSLLFSQILKTFSLVDKEQQRSEIYSMCLFFVILGCVSLFTQFLQGYNFAKSGELLTKRLRKFGFKAMLRQDIGWFDDLKNNPGVLTTRLATDASQVQGATGSQVGMMVNSFTNIFVAVLIAFLFNWKLSLVISVFFPFLALSGAVQTKMLTGFASQDKEILEKAGQITNEALSNIRTVAGIGVEGRFIKAFEVELEKSYKTAIRKANVYGLCYAFSQGISFLANSAAYRYGGYLIVYEDLNFSYVFRVVSSIAMSATAVGRTFSYTPSYAKAKISAARFFQLLDRKPPIDVYSGAGEKWDNFQGKIDFIDCKFTYPSRPDIQVLNGLSVSVDPGQTLAFVGSSGCGKSTSIQLLERFYDPDQGTVMIDGHDSKKVNVQFLRSNIGIVSQEPVLFDCSIMDNIKYGDNTKEISVERAIAAAKQAQLHDFVMSLPEKYETNVGIQGSQLSRGEKQRIAIARAIVRDPKILLLDEATSALDTESEKTVQLALDKAREGRTCIVIAHRLSTIQNSDIIAVMSQGVVIEKGTHKKLMDQKGAYYKLVITGAPIS |  |  | Km [7]: 38.3 µM
